Source: article PMC9503778, “Targeted Isolation of Antibiotic Brominated Alkaloids from the Marine Sponge Pseudoceratina durissima Using Virtual Screening and Molecular Networking” (Marine Drugs, 2022)
Converted amounts (≈) assume the structure as drawn. “And” between values parts separate entries of the source, which are not always exact repeats. Equal entries are not always repeated. Where two headings read alike, the source gives them in different places.

Assays:
[1] = Cytotoxicity assay (CO-ADD); assay type: cell-based; conditions: human embryonic kidney cells
[2] = test system: zebrafish (Danio rerio) larvae at 5 dpf; experiment: Zebrafish larvae spontaneous, unstimulated swimming bioassay; assay type: in vivo; conditions: for Spontaneous swimming, mean distance moved: 10 nM and 100 nM, compared with 1 nM
Method: (§1) For the zebrafish bioactivity assay, three experiments were performed on 5 days post fertilization (dpf) zebrafish larvae treated with methanol crude extracts from all four sponge specimens, using total distance moved as an endpoint metric. Spontaneous swimming experiments were performed according to the following protocol: allowing a 2 min acclimatization period in darkness followed by a 5 min darkness swimming period, where total distance moved was measured. Simulated predator response (SPR) experiments were performed involving a 2 min acclimatization period in light conditions, followed by 3 min in light free swimming and a measurement period of 3 mins in dark. Finally, a Larval Photo-motor Response (LPR) experiment was conducted beginning with 2 mins light acclimatization followed by three cycles of alternating photic stimulus (each cycle consisting of 4 min light –4 min dark conditions to assess the profile of the treatment across time, Figure 8.
(§2) Basal behavioral analysis was conducted on zebrafish (Danio rerio) larvae at 5 dpf using an in-house custom-built behavioral analysis system. All assays followed standard protocols as previously described.
(§3) Zebrafish were housed and bred in the AquaCore facility, Monash University, according to standard procedures. Larvae were maintained in E3 media (5mM NaCl, 0.17mM KCl, 0.33 mM CaCl2, 0.33 mM MgSO4, supplemented with 1 x 10 – 5% methylene blue as antimycotic).
(§4) Digital video processing and animal tracking was performed using Ethovision XT ver.16 (Noldus Inc., Wageningen, The Netherlands) using a standardized method as described before.
(§5) All data was averaged across replicate larvae for each treatment and control, respectively, and presented as mean ± SEM. Cumulative distance traveled by larvae was measured by summing the incremental distance moved by each larva between frames of video files. Statistical analysis and data presentation was performed using Prism 8 (GraphPad Software Inc., San Diego, CA, USA). Data sets were tested for outliers and normality of distribution, followed by either one-way or two-way ANOVA testing for significance. […] Where time point data was collected significance was compared for each time domain with that of vehicle controls. Significance was universally set to p < 0.05.

[3] = test system: K. pneumoniae (G-) strain ATCC 700603; experiment: Antimicrobial growth inhibition (CO-ADD), K. pneumoniae; assay type: cell-based, Klebsiella pneumoniae; conditions: for % inhibition K. pneumoniae: 32 µg/mL; for MIC / inhibition at 32 µg/mL: Klebsiella pneumoniae
Method: (§6) Compounds 1−3 and 5−12 were assayed against a selection of medically important pathogenic microorganisms (MRSA, E. coli, K. pneumoniae, A. baumanii, P. aeruginosa, C. albicans, C. neoformans), Table 4. […] To the best of our knowledge this compound had not been tested against any drug resistant strain of Gram-positive bacterium until this study.
(§7) The antimicrobial activity testing was performed by the Community for Antimicrobial Drug Discovery (CO-ADD). Compounds were assayed against a range of both Gram negative and Gram positive bacteria (see Supplementary Materials S3) including methicillin-resistant Staphylococcus aureus (MRSA) (G+), Escherichia coli (G-), Klebsiella pneumoniae (G-), Acinetobacter baumannii (G-), Pseudomonas aeruginosa (G-) together with two species of fungus (Candida albicans and Cryptococcus neoformans).
(§8) S3. Antimicrobial activity testing methodology
(§9) The compounds submitted to CO-ADD were evaluated in duplicate (n = 2) against seven microorganisms (five bacteria and two fungi) at a concentration of 32 µg/mL in a 384-well, non-binding surface plate (NBS) for each bacterial/fungal strain, keeping the final DMSO concentration to a maximum of 1% DMSO. All bacteria were cultured in cation-adjusted Mueller-Hinton broth (CAMHB) at 37 °C overnight. A sample of each culture was then diluted 40-fold in fresh broth and incubated at 37 °C for 1.5-3 h. The resultant mid-log phase cultures were diluted (CFU/mL measured by OD600), then added to each well of the compound containing plates, giving a cell density of 5x10^5 CFU/mL and a total volume of 50 µL. All the plates were covered and incubated at 37 °C for 18 h without shaking. […] Inhibition of bacterial growth was determined measuring absorbance at 600 nm (OD600) using a Tecan M1000 Pro mon-ochromator plate reader. […]
(§10) 2 h. The absorbance was measured using a Biotek Synergy HTX plate reader. The percentage of growth inhibition was calculated for each well, using negative control (medium only) and positive control (bacteria without inhibitors) on the same plate as the references. The significance of inhibition values was determined by modified Z-scores, calculated using the median and MAD of the samples (no controls) on the same plate. Samples with inhibition value above 80% and Z-score above 2.5 for either replicate (n = 2 on different plates) were classed as actives.
(§11) Colistin and vancomycin were used as positive bacterial inhibitor standards for Gram-negative and Gram-positive bac-teria, respectively. Fluconazole was used as a positive fungal inhibitor standard for C. albicans and C. neoformans. The antibiotics were provided in four concentrations, with two above and two below its MIC value, and plated into the first eight wells of column 23 of the 384-well NBS plates. The quality control (QC) of the assays was determined by the antimicrobial controls and the Z’-factor (using positive and negative controls). Each plate was deemed to fulfil the qual- […]
(§12) full growth inhibition at their highest concentration, and no growth inhibition at their lowest concentration. The seven […]
(§13) test microorganisms were Staphylococcus aureus MRSA (ATCC 43300), Escherichia coli (ATCC 25922), Klebsiella pneu-moniae (ATCC 700603), Acinetobacter baumanii (ATCC19606), Pseudomonas aeruginosa (ATCC 27853), Candida albicans (ATCC 90028) and Cryptococcus neoformans var. grubii (H99; ATCC 208821).
(§14) S4. Anthelmintic activity testing methodology
(§15) Dose-response evaluations were carried out to estimate the half-maximal inhibitory concentrations (IC50 values) for compounds against Haemonchus contortus (Haecon-5 strain) exsheathed third-stage larvae (xL3s). H. contortus were maintained in experimental sheep and procured in accordance with the institutional animal ethics guidelines and the regulations of Australia (permit no. 1714374; University of Melbourne). Immediately prior to use, third-stage larvae (L3s) were exsheathed and sterilised by incubation in 0.15% (v/v) bleach at 38 °C for 20 min, followed by washes in […]

[4] = test system: P. auruginosa (G-) strain ATCC 27853; experiment: Antimicrobial growth inhibition (CO-ADD), P. aeruginosa; assay type: cell-based, Pseudomonas aeruginosa; conditions: for MIC / inhibition at 32 µg/mL: Pseudomonas aeruginosa; for % inhibition P. aeruginosa: 32 µg/mL
Method: as §6, §7, §8, §9, §10, §11, §12, §13, §14, §15

[5] = test system: C. neoformans var. grubii strain ATCC 208821; experiment: Antimicrobial growth inhibition (CO-ADD), C. neoformans; assay type: cell-based; conditions: Cryptococcus neoformans
[6] = test system: zebrafish (Danio rerio) larvae at 5 dpf; experiment: Zebrafish larvae simulated predator response (SPR) bioassay; assay type: in vivo; conditions: for SPR, total distance moved vs vehicle control: p < 0.0001; for SPR, profile across concentrations: 10 nM
Method: as §1, §2, §3, §4, §5

[7] = test system: zebrafish (Danio rerio) larvae at 5 dpf; experiment: Zebrafish Larval Photo-motor Response (LPR) bioassay; assay type: in vivo; conditions: 1 nM, 10 nM and 100 nM
Method: as §1
Basal behavioral analysis was conducted on zebrafish (Danio rerio) larvae at 5 dpf using an in-house custom-built behavioral analysis system. […]
All data was averaged across replicate larvae for each treatment and control, respectively, and presented as mean ± SEM. Cumulative distance traveled by larvae was measured by summing the incremental distance moved by each larva between frames of video files. […]

S. aureus ATCC 25923 = test system: S. aureus ATCC 25923; set-up: method as in PMID 8297426; conditions: cited from earlier work
HIV = test system: HIV; set-up: method as in earlier work; conditions: read-out: IC50 against HIV; cited from earlier work
[8] = ATCC700603, ATCC 700603, read-out: MIC K. pneumoniae
[9] = ATCC27853, ATCC 27853, read-out: MIC P. aeruginosa
[10] = ATCC208821, var. grubii ATCC 208821, read-out: MIC C. neoformans
[11] = ATCC700603, read-out: % inhibition K. pneumoniae, 32 µg/mL, duplicate (n = 2) values
[12] = ATCC27853, read-out: % inhibition P. aeruginosa, 32 µg/mL, duplicate (n = 2) values
[13] = ATCC700603, 32 µg/mL, duplicate (n = 2) values, read-out: % inhibition K. pneumoniae

Row | SMILES | MIC [3, 8] [µg/mL] | MIC [4, 9] [µg/mL] | MIC [5, 10] [µg/mL] | CC50 ([1]; human) [µg/mL] | Spontaneous swimming, total distance moved vs vehicle control ([2]; 1 nM, 5 dpf larvae, p < 0.0001) | Spontaneous swimming, mean distance moved [2] | % inhibition K. pneumoniae ([3]; duplicate (n = 2) values) | CC50 [1] [µg/mL] | inhibition at 32 µg/mL [3, 11] [%] | % inhibition P. aeruginosa ([4]; duplicate (n = 2) values) | Spontaneous swimming, profile across concentrations ([2]; 1 nM, 10 nM, 100 nM) | inhibition at 32 µg/mL [3, 13] [%] | also measured
1 | COC1=C(Br)[C@H](O)[C@@]2(C=C1Br)CC(C(=O)NCCCOc1c(Br)cc(CCN)cc1Br)=NO2 [Compound 11, araplysillin I] | > 32 | > 32 | > 32 | – | – | – | 17.0% | > 32 | 12.2 | 0.3% and 8.0% | – | – | –
2 | COC1=C(Br)[C@H](O)[C@@]2(C=C1Br)CC(C(=O)NCCCCCNC(=O)C1=NO[C@]3(C=C(Br)C(OC)=C(Br)[C@@H]3O)C1)=NO2 [Compound 3, homoaerothionin] | > 32 | > 32 | > 32 | – | significant hyperactivity | reduced mean distance moved | 6.6% | > 32 | 10.2 | 10.4% and 2.2% | dose dependent hypoactivity effect | – | SPR, total distance moved vs vehicle control ([6]; 100 nM): Clear hyperactivity
3 | COC1=C(Br)[C@H](O)[C@@]2(C=C1Br)CC(C(=O)NCCCOc1c(Br)cc(CCNC(=O)C3=NO[C@]4(C=C(Br)C(OC)=C(Br)[C@@H]4O)C3)cc1Br)=NO2 [Compound 5, 11,17-deoxyfistularin-3] | > 32 | > 32 | > 32 | – | – | – | 8.7% | > 32 | 6.5 | 7.2% | – | – | inhibition at 32 µg/mL [4, 12]: 4.3%
4 | COC1=C(Br)[C@H](O)[C@](O)(CC#N)C=C1Br [Compound 1, (+)-aeroplysinin-1] | – | – | – | – | significant hyperactivity effects | reduced mean distance moved | −2.8% and −3.3% | > 32 | – | 18.2% | increased hypoactivity with higher concentrations | – | MIC against S. aureus ATCC 25923 (S. aureus ATCC 25923): 25 µg/mL (≈ 73.8 µM); SPR, profile across concentrations ([6]; 1 nM, 100 nM): increased hypoactivity with higher concentrations; SPR, total distance moved vs vehicle control ([6]; 1 nM): significant hyperactivity effects; IC50 (HIV): 14.6 µM; MIC ([3]; ATCC700603, read-out: MIC K. pneumoniae): > 32 µg/mL; inhibition at 32 µg/mL [4, 12]: 10.9%; MIC ([4]; ATCC27853, read-out: MIC P. aeruginosa): > 32 µg/mL; MIC ([5]; ATCC208821, read-out: MIC C. neoformans): > 32 µg/mL; LPR, mean area under the curve across light and dark cycles vs vehicle control [7]: reduced hyperactivity at higher concentrations
5 | COC1(OC)C(Br)=CC(O)(CC(N)=O)C=C1Br [Compound 6, 2-(3,5-dibromo-1-hydroxy-4,4-dimethoxycyclohexa-2,5-dien-1-yl)acetamide] | > 32 | > 32 | > 32 | > 32 | – | – | 6.4% | – | – | 1.1% and 9.7% | – | 12.3 | Spontaneous swimming, total distance moved vs vehicle control ([2]; 10 nM, p < 0.0001): hyperactivity; Spontaneous swimming, total distance moved ([2]; 100 nM, p < 0.0001): curtailed

Second part, led by results:

Row | MIC [3, 8] [µg/mL] | MIC [4, 9] [µg/mL] | MIC [5, 10] [µg/mL] | SMILES | CC50 ([1]; human) [µg/mL] | Spontaneous swimming, total distance moved vs vehicle control ([2]; 1 nM, 5 dpf larvae, p < 0.0001) | Spontaneous swimming, mean distance moved [2] | % inhibition K. pneumoniae ([3]; duplicate (n = 2) values) | CC50 [1] [µg/mL] | inhibition at 32 µg/mL [3, 11] [%] | % inhibition P. aeruginosa ([4]; duplicate (n = 2) values) | Spontaneous swimming, profile across concentrations ([2]; 1 nM, 10 nM, 100 nM) | inhibition at 32 µg/mL [3, 13] [%] | also measured
6 | > 32 | > 32 | > 32 | NC(=O)Cc1c(O)cc(Br)c(O)c1Br [Compound 9, subereaphenol A] | > 32 | significant hyperactivity | reduced mean distance moved | 15.5% and 6.6% | – | – | – | – | – | –
7 | > 32 | > 32 | > 32 | COC1=C(Br)[C@H](O)[C@@]2(C=C1Br)CC(C(=O)NCCCCNC(=O)C1=NO[C@]3(C=C(Br)C(OC)=C(Br)[C@@H]3O)C1)=NO2 [Compound 2, aerothionin] | > 32 | – | – | 10.9% | – | – | – | biphasic distribution of mean movement data | 10.4 | SPR, profile across concentrations ([6]; 1 nM, 100 nM): biphasic distribution of mean movement data; Spontaneous swimming, total distance moved vs vehicle control ([2]; all three concentrations (1 nM, 10 nM, 100 nM)): no significant difference to the vehicle control; LPR, mean area under the curve across light and dark cycles vs vehicle control [7]: biphasic distribution of mean movement data
8 | > 32 | > 32 | > 32 | COc1c(Br)cc(CC#N)c(O)c1Br [Compound 8, 2-(3,5-dibromo-2-hydroxy-4-methoxyphenyl)acetonitrile] | > 32 | – | – | 12.5% | – | – | 6.8% | – | 10.3 | inhibition at 32 µg/mL ([4]; ATCC27853, 32 µg/mL, duplicate (n = 2) values, read-out: % inhibition P. aeruginosa): 11.2%
